# Where a SMILES comes first, the peptide text is derived from it. The star is where a group is joined. Cbz = O=C(OCc1ccccc1)*
# T1: endogenous USP1 (U2-OS and HOS osteosarcoma cells) (human, UniProt O94782 1-785)
# T1 construct: Endogenous protein immunoprecipitated from human cell lines
# T1 sequence: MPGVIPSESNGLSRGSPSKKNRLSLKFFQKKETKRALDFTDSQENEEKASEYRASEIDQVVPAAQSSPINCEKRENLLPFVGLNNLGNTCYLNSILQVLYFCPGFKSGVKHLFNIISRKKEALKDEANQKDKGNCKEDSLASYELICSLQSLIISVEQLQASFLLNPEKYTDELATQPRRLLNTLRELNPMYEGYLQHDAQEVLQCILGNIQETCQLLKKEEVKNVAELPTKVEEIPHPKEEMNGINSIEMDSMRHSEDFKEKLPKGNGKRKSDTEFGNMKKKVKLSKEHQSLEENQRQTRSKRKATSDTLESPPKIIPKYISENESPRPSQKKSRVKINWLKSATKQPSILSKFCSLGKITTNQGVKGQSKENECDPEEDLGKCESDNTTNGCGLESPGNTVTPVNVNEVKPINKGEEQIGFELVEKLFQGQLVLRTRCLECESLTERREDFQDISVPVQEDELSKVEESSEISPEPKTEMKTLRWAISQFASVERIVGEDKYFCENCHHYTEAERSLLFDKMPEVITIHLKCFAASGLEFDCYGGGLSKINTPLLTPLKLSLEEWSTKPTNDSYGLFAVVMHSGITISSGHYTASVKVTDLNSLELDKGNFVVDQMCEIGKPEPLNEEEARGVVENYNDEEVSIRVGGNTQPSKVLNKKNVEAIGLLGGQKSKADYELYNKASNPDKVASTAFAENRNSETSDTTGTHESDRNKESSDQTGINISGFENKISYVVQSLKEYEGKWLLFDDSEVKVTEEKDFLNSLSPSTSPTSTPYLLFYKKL
# T2: ID2 (co-transfected / co-expressed in 293T cells)
# T2 chain: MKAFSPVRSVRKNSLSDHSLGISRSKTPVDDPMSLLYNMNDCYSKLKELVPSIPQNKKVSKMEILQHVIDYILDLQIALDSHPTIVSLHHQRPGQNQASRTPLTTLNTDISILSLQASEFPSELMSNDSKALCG
# T3: ubiquitinated ID2-Flag (ID2 with C-terminal Flag epitope, modified with HA-ubiquitin, affinity purified from 293T cells)
# T3 chain: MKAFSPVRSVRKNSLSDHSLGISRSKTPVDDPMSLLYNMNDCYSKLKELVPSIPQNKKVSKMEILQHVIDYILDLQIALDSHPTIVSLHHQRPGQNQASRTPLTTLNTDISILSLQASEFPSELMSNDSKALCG
# Legend:
# proteasome [1] = test: ID2 abundance after proteasome inhibition in DT40 cells; format: cell-based, chicken
# Protocol: (§1) The human cell lines 143B, 293T, HOS, MG-63, SAOS-2, SJSA, and U2-OS (ATCC) were maintained in DMEM with 10% FBS (Sigma), 10 units/ml penicillin, and 10 μg/ml streptomycin (Gibco). Primary human osteoblasts (PromoCell) were expanded in primary osteoblast medium (PromoCell) and subcultured in DMEM supplemented as above. Primary human mesenchymal stem cells derived from normal bone marrow (Lonza) were subcultured in mesenchymal stem cell growth medium (Lonza). For osteogenic differentiation studies, hMSC were cultured in osteogenic differentiation medium (Lonza) supplemented with 100 ng/mL BMP-9 (R&D Systems). Primary human osteosarcomas were obtained from CytoMix, LLC, and from the Cooperative Human Tissue Network. […] Murine NIH-3T3 (ATCC) were cultured in supplemented DMEM. Wild-type and USP1^−/− DT-40 cells were a kind gift from K. Patel and were cultured in RPMI with 7% FBS and 3% chicken serum (Gibco). MG-132 (Calbiochem) was used at 10 μM. Cycloheximide (Sigma) was used at 25 μg/ml.
# proteasome [2] = test: ID protein abundance after proteasome inhibition in U2-OS cells; format: cell-based, human
# Protocol: as §1
# (§2) Rat monoclonal antibodies were raised against the C-terminal 100 amino-acids of human USP1 or WDR48 to produce the monoclonal USP1 antibody 5E10 and WDR48 antibody 9F10. […]
# proteasome [3] = test: ID2 abundance after proteasome inhibition in 293T cells; format: cell-based, human; conditions: MG-132 10 μM
# Protocol: as §1, §2
# [4] = tested on: 143B osteosarcoma xenograft; test: 143B osteosarcoma xenograft model; format: in vivo, NCr nude mice
# Protocol: U2-OS, HOS, or SAOS cells were transfected three times with pRS shUSP1 or shCTL as follows: Cells were initially transfected with shUSP1 or shCTL, cultured for 2 days, and selected with puromycin for 3 days. Cells were retransfected with pMACS and shUSP1 or shCTL, cultured for 2 days, sorted by anti-H-2K^k bead sort (Miltenyi), cultured for 1 day, and serially re-transfected with shUSP1 or shCTL. Cells were cultured for an additional 3 days and osteoblast and hMSC markers were assessed by flow cytometry, real-time RT-PCR, and ALP assay. 143B cells were transduced with pTRIPZ-based inducible USP1 or control shRNA vectors and puromycin-resistant cells were subcultured.
# 8-week-old female NCr nude mice were injected subcutaneously in the right hind flank with 2.5×10^6 143 B shUSP1 cells in a volume of 100 μl of HBSS+matrigel. Doxycycline-treated mice were fed 1 mg/mL solutions of doxycycline in 5% sucrose water. Mice were monitored for tumor establishment and growth as well as body weight changes. When mice in a given group achieved a mean tumor volume of 2000 mm^3 and/or reached 78 days post-inoculation, mice were euthanized and dissected to confirm the presence or absence of tumor formation.
# [5] = molecular target: T1, endogenous USP1 (U2-OS and HOS …); test: immunoprecipitation of endogenous USP1 from U2-OS cells, blot for ID2; control with nonspecific IgG
# Excerpt: ID2-Flag was immunoprecipitated from SDS/heat-denatured cell lysates. […] Control immunoprecipitations were with nonspecific IgG.
# (A) Western blot (WB) analysis of cultured primary human osteoblasts and human osteosarcoma cell lines. […] Control immunoprecipitations were with nonspecific IgG. […] Bars represent the mean±s.d. of triplicate observations. […] Un, untransfected.
# [6] = molecular target: T2, ID2 (co-transfected / co-expressed in …)
# [7] = molecular target: T3, ubiquitinated ID2-Flag (ID2 with …)
molecule,measurement,setting,value
CC(C)C[C@@H](C=O)NC(=O)[C@H](CC(C)C)NC(=O)[C@H](CC(C)C)NC(=O)OCc1ccccc1 [MG-132] (Cbz-Leu-Leu-Leu-aldehyde),ID2 abundance,proteasome [1]; USP1−/− DT40 cells,increased ID2
same,ID2 abundance,proteasome [1]; wild-type DT40 cells,not
same,ID expression after USP1 knockdown,proteasome [2]; U2-OS cells with USP1 knockdown,did restore ID expression
same,ID protein abundance,"proteasome [2]; U2-OS cells, MG-132 alone",did not by itself alter ID protein abundance
same,endogenous ID2 abundance,proteasome [3],ID2 accumulates
"doxycycline-induced USP1 shRNA: doxycycline-inducible pTRIPZ shRNA targeting human USP1, 5′-AGGCAATACTTGCTATCTTAAT-3′ (SEQ ID NO:12), Open Biosystems",xenograft tumors that achieved stasis and differentiation in situ,[4]; 143B USP1-deficient xenograft tumors,four of ten
same,ALP activity in xenografts,[4]; 143B xenografts,enhanced ALP activity
same,ID1 and ID2 in xenografts,"[4]; 143B xenografts, doxycycline",reduced ID1 and ID2
same,USP1 expression in xenografts,"[4]; 143B xenografts, doxycycline",suppressed USP1 expression
same,tumor growth,"[4]; 143B xenografts, doxycycline",reduced 143B tumor growth
same,osteogenic gene expression in xenografts,"[4]; 143B xenografts, RT-PCR, in situ hybridization","promoted OSTEONECTIN, RUNX2, SPP1/OSTEOPONTIN, OSTERIX, and BGLAP/OSTEOCALCIN expression"
"endogenous ID2 (U2-OS, HOS and 293T cells) (other, Endogenous protein of human cell lines) MKAFSPVRSVRKNSLSDHSLGISRSKTPVDDPMSLLYNMNDCYSKLKELVPSIPQNKKVSKMEILQHVIDYILDLQIALDSHPTIVSLHHQRPGQNQASRTPLTTLNTDISILSLQASEFPSELMSNDSKALCG",binding result,[5],binds
USP33-Flag (human USP33 with C-terminal Flag epitope) (protein) MTGSNSHITILTLKVLPHFESLGKQEKIPNKMSAFRNHCPHLDSVGEITKEDLIQKSLGTCQDCKVQGPNLWACLENRCSYVGCGESQVDHSTIHSQETKHYLTVNLTTLRVWCYACSKEVFLDRKLGTQPSLPHVRQPHQIQENSVQDFKIPSNTTLKTPLVAVFDDLDIEADEEDELRARGLTGLKNIGNTCYMNAALQALSNCPPLTQFFLDCGGLARTDKKPAICKSYLKLMTELWHKSRPGSVVPTTLFQGIKTVNPTFRGYSQQDAQEFLRCLMDLLHEELKEQVMEVEEDPQTITTEETMEEDKSQSDVDFQSCESCSNSDRAENENGSRCFSEDNNETTMLIQDDENNSEMSKDWQKEKMCNKINKVNSEGEFDKDRDSISETVDLNNQETVKVQIHSRASEYITDVHSNDLSTPQILPSNEGVNPRLSASPPKSGNLWPGLAPPHKKAQSASPKRKKQHKKYRSVISDIFDGTIISSVQCLTCDRVSVTLETFQDLSLPIPGKEDLAKLHSSSHPTSIVKAGSCGEAYAPQGWIAFFMEYVKRFVVSCVPSWFWGPVVTLQDCLAAFFARDELKGDNMYSCEKCKKLRNGVKFCKVQNFPEILCIHLKRFRHELMFSTKISTHVSFPLEGLDLQPFLAKDSPAQIVTYDLLSVICHHGTASSGHYIAYCRNNLNNLWYEFDDQSVTEVSESTVQNAEAYVLFYRKSSEEAQKERRRISNLLNIMEPSLLQFYISRQWLNKFKTFAEPGPISNNDFLCIHGGVPPRKAGYIEDLVLMLPQNIWDNLYSRYGGGPAVNHLYICHTCQIEAEKIEKRRKTELEIFIRLNRAFQKEDSPATFYCISMQWFREWESFVKGKDGDPPGPIDNTKIAVTKCGNVMLRQGADSGQISEETWNFLQSIYGGGPEVILRPPVVHVDPDILQAEEKIEVETRSL,deubiquitinating activity against ID2,[6],"unlike USP1, USP33 lacked deubiquitinating activity against ID2 (data not shown)"
USP1-Flag (wild-type human USP1 with in-frame C-terminal Flag epitope) (protein) MPGVIPSESNGLSRGSPSKKNRLSLKFFQKKETKRALDFTDSQENEEKASEYRASEIDQVVPAAQSSPINCEKRENLLPFVGLNNLGNTCYLNSILQVLYFCPGFKSGVKHLFNIISRKKEALKDEANQKDKGNCKEDSLASYELICSLQSLIISVEQLQASFLLNPEKYTDELATQPRRLLNTLRELNPMYEGYLQHDAQEVLQCILGNIQETCQLLKKEEVKNVAELPTKVEEIPHPKEEMNGINSIEMDSMRHSEDFKEKLPKGNGKRKSDTEFGNMKKKVKLSKEHQSLEENQRQTRSKRKATSDTLESPPKIIPKYISENESPRPSQKKSRVKINWLKSATKQPSILSKFCSLGKITTNQGVKGQSKENECDPEEDLGKCESDNTTNGCGLESPGNTVTPVNVNEVKPINKGEEQIGFELVEKLFQGQLVLRTRCLECESLTERREDFQDISVPVQEDELSKVEESSEISPEPKTEMKTLRWAISQFASVERIVGEDKYFCENCHHYTEAERSLLFDKMPEVITIHLKCFAASGLEFDCYGGGLSKINTPLLTPLKLSLEEWSTKPTNDSYGLFAVVMHSGITISSGHYTASVKVTDLNSLELDKGNFVVDQMCEIGKPEPLNEEEARGVVENYNDEEVSIRVGGNTQPSKVLNKKNVEAIGLLGGQKSKADYELYNKASNPDKVASTAFAENRNSETSDTTGTHESDRNKESSDQTGINISGFENKISYVVQSLKEYEGKWLLFDDSEVKVTEEKDFLNSLSPSTSPTSTPYLLFYKKL,in vitro deubiquitination assay (HA-ubiquitin immunoblot of ID2-Flag),[7],Ubiquitinated ID2 was decreased by wild-type USP1 but not USP1 C90S
USP1 C90S-Flag (catalytically inactive point mutant of human USP1 with C-terminal Flag epitope) (protein) MPGVIPSESNGLSRGSPSKKNRLSLKFFQKKETKRALDFTDSQENEEKASEYRASEIDQVVPAAQSSPINCEKRENLLPFVGLNNLGNTSYLNSILQVLYFCPGFKSGVKHLFNIISRKKEALKDEANQKDKGNCKEDSLASYELICSLQSLIISVEQLQASFLLNPEKYTDELATQPRRLLNTLRELNPMYEGYLQHDAQEVLQCILGNIQETCQLLKKEEVKNVAELPTKVEEIPHPKEEMNGINSIEMDSMRHSEDFKEKLPKGNGKRKSDTEFGNMKKKVKLSKEHQSLEENQRQTRSKRKATSDTLESPPKIIPKYISENESPRPSQKKSRVKINWLKSATKQPSILSKFCSLGKITTNQGVKGQSKENECDPEEDLGKCESDNTTNGCGLESPGNTVTPVNVNEVKPINKGEEQIGFELVEKLFQGQLVLRTRCLECESLTERREDFQDISVPVQEDELSKVEESSEISPEPKTEMKTLRWAISQFASVERIVGEDKYFCENCHHYTEAERSLLFDKMPEVITIHLKCFAASGLEFDCYGGGLSKINTPLLTPLKLSLEEWSTKPTNDSYGLFAVVMHSGITISSGHYTASVKVTDLNSLELDKGNFVVDQMCEIGKPEPLNEEEARGVVENYNDEEVSIRVGGNTQPSKVLNKKNVEAIGLLGGQKSKADYELYNKASNPDKVASTAFAENRNSETSDTTGTHESDRNKESSDQTGINISGFENKISYVVQSLKEYEGKWLLFDDSEVKVTEEKDFLNSLSPSTSPTSTPYLLFYKKL,in vitro deubiquitination assay (HA-ubiquitin immunoblot of ID2-Flag),[7],Ubiquitinated ID2 was decreased by wild-type USP1 but not USP1 C90S

# Source: patent US20140199327A1, “METHODS OF PROMOTING DIFFERENTIATION” (Genentech, Inc., priority 2011, published 2014)
